Data published in PMC10206040, “Identification of novel anti-amoebic pharmacophores from kinase inhibitor chemotypes” (Frontiers in Microbiology, 2023).
“Also recorded” adds a separate entry of the source. Read-outs that look alike come from different tables or passages of the source.

What was measured:
MRC5 cells = assay: Human fetal lung fibroblast (MRC5) cell cytotoxicity assay (resazurin); conditions: for MRC5 TC50 ± Standard Deviation: Table S2, in µM
Description: (§1) Intermediate plates were made as described, adding 95 μL of DMEM complete media to 5 μL of compound per well setting a 5% DMSO amount. Log-phase MRC5 cells were removed from a T-75 TC flask using TrypLE® Express (Thermo®) and dispersed by gentle pipetting. Cell density was adjusted to working concentration in prewarmed DMEM medium: 25,000 cells in 90 μL of culture were plated in 96-well transparent Nunclon plates and allowed to settle for 24 h at 37°C and 5% CO2. […] Plates were incubated for 48 h at 37°C and 5% CO2. At 4 h prior to fluorescence measurement, 20 μL of 500 μM resazurin solution was added.
(§2) A four-parameter equation was used to fit the dose–response curves and determination of EC50 by SigmaPlot ® 13.0 software. Assays were performed in duplicate at least twice for positive compounds, to achieve a minimal […] per dose response.

[1] = as above; conditions: human
Description: as §1, §2

[2] = test system: Naegleria fowleri (ATCC 30215) trophozoites; assay: microbe, parasite or virus in culture
Description: Trophozoites were routinely grown axenically at 34°C, 5% CO2, in Nelson’s complete medium (NCM) in non-vented 75 cm^2 tissue culture flasks (Olympus), until the cells were 80–90% confluent. For sub-culturing, cells were placed on ice to detach the cells from the culture flasks. […] Complete NCM media is prepared by the addition of 10% fetal bovine serum (FBS) and 100 U/mL penicillin, and 100 μg/mL streptomycin antibiotics.
Trophozoites were routinely cultured as described above and only logarithmic trophozoites were used.
All assays were incubated at each of the parasites’ representative growth temperatures, described above, for 72 h. At the 72-h time point, 25 μL of CellTiter-Glo 2.0 reagent was added to all wells of the 96-well plates by hand. The plates were protected from light and contents were mixed using an orbital shaker at 300 rpm at room temperature for 2 min to induce cell lysis. After shaking, the plates were equilibrated at room temperature for 10 min to stabilize the luminescent signal. The ATP luminescent signal (relative light units; RLUs) were measured […] with a SpectraMax I3X plate reader (Molecular Devices, Sunnyvale, CA, United States). […] Values reported are from a minimum of three biological replicates with standard deviation.

L6 cells = assay: Rat skeletal muscle cell line (L6) cytotoxicity assay (resazurin); conditions: Table S2; in µM
Description: (§3) One hundred microliters (100 μL) per well of culture medium containing the compounds and controls were added to L6 cells previously cultured (4 × 10^3 L6 cells per well). After 72 h at 37°C the medium was exchanged, and the viable cell number was determined by resazurin (Sigma–Aldrich) reduction. 20 μl of resazurin (1.1 mg/ml) was added to each well and incubated in the dark for 2 h at 37°C.

[3] = as above; conditions: rat
Description: as §3

[4] = test system: Acanthamoeba castellanii T4 isolate (ATCC 50370) trophozoites; assay: CellTiter-Glo 2.0 trophocidal assay, A. castellanii; format: cell-based; conditions: Acanthamoeba castellanii, ATCC50370, 72 h, read-out: Acanthamoeba castellanii EC50 ± SD
Description: This isolate was purchased from American Type Culture Collection (ATCC). […] For sub-culturing, cells were mechanically harvested to detach the cells from the culture flasks.

THP-1 = assay: Cytotoxicity assay in THP-1 (MTT); format: cell-based; conditions: Table S2, 72 h, maximal concentration 50 μM
Description: Cytotoxicity assay in TH P-1. Cellular toxicity of all compounds was determined using the colorimetric MTT-based assay after incubation at 37 °C for 72 h in the presence of increasing concentrations of compounds (final maximal concentration was 50 μM in 0.5% DMSO per well) [ 1] . The results are expressed […]
cells. Assays were performed in duplicate at least twice to achieve a minimal n=3 per dose response. […]
Cytotoxicity assay in THP-1. Cellular toxicity of all compounds was determined using the colorimetric MTT-based assay after incubation at 37 °C for 72 h in the presence of increasing concentrations of compounds (final maximal concentration was 50 μM in 0.5% DMSO per well). […] Assays were performed in duplicate at least twice to achieve a minimal n=3 per dose response.

[5] = test system: Balamuthia mandrillaris (CDC:V039; ATCC 50209) trophozoites; assay: CellTiter-Glo 2.0 trophocidal assay, B. mandrillaris; format: cell-based
Description: For sub-culturing, 0.25% Trypsin–EDTA (Gibco) cell detachment reagent was used to detach the cells from the culture flasks.

[6] = cited from earlier work; for blood/brain ratio: 10 mg/kg I.P., 2019; for in vivo toxicity in PK study: dosed I.P. at 10 mg/kg, ref Tear et al., 2020
[7] = MRC5 cells (human fetal lung fibroblasts)
[8] = Naegleria fowleri, ATCC30215, 72 h, read-out: Naegleria fowleri EC50 ± SD, logarithmic trophozoites, 72 h, n = 3 (converted)
[9] = L6 cells (rat skeletal muscle cell line)
[10] = logarithmic trophozoites, 72 h, n = 3
[11] = Balamuthia mandrillaris, ATCC50209, 72 h, logarithmic trophozoites, 72 h, n = 3, read-out: Balamuthia mandrillaris EC50 ± SD
[12] = Naegleria fowleri, 72 h, read-out: Naegleria fowleri EC50 ± SD, logarithmic trophozoites, 72 h, n = 3 (converted)
[13] = Balamuthia mandrillaris, ATCC50209, 72 h, read-out: Balamuthia mandrillaris EC50 ± SD

SMILES	MRC5 TC50 ± Standard Deviation (MRC5 cells)	CC50 at 48 h [1, 7] [µM]	EC50 [2, 8] [µM]	L6 TC50 ± Standard Deviation (L6 cells)	CC50 at 72 h [3, 9] [µM]	EC50 [4, 10] [µM]	THP-1 TC50 ± Standard Deviation (THP-1)	EC50 [5, 11] [µM]	EC50 [2, 12] [µM]	further results
Nc1ccnc(-c2cc3c4c(n[nH]c4c2)Nc2ccccc2O3)n1 [Compound 1a]	> 50	> 50	≤ 14	32 ± 2.5	32 ± 2.5	3.8 ± 0.46	> 50	17 ± 3	–	EC50 ([2]; read-out: Naegleria fowleri EC50 ± SD, logarithmic trophozoites, 72 h, n = 3): 8.5 ± 0.34 µM
CNc1nccc(-c2cc3c4c(n[nH]c4c2)Nc2ccccc2O3)n1 [Compound 1c]	> 50	> 50	–	6.3 ± 0.55	6.3 ± 0.55	3.3 ± 0.31	5.0 ± 0.11	1.9 ± 1.3	–	selectivity versus MRC5 ([2]; N. fowleri EC50 versus MRC5 cells): > 10 fold; selectivity versus THP-1 ([2]; N. fowleri EC50 versus THP-1 cells): > 10 fold
CCOc1cc(-c2ccnc(N)n2)cc2c1c(N)nn2C [Compound 1d]	> 50	> 50	> 20	> 17 ± 0.052	> 17	12 ± 8.3	> 50	9.49 ± 0.23	–	EC50 ([5]; logarithmic trophozoites, 72 h, n = 3, read-out: Balamuthia mandrillaris EC50 ± SD): 9.5 ± 0.23 µM
Cn1nc2c3c(cc(-c4ccnc(N)n4)cc31)Oc1ccccc1N2 [Compound 1e]	> 50	> 50	> 20	> 50	> 50	> 20	> 50	14 ± 0.29	–	blood/brain ratio ([6]; 0.5 h, ref Klug et al.): 2.4; blood/brain ratio ([6]; 4 h, ref Klug et al.): 2.1
c1cncc(Nc2nccc(-c3cnn4ncccc34)n2)c1 [Compound 2b]	–	> 50	–	–	–	–	–	–	0.3 ± 0.21	EC50 [4]: 1.5 ± 0.12 µM; EC50 [5, 13]: 5 ± 0.1 µM; in vivo toxicity in PK study ([6]; 10 mg/kg): in vivo toxicity was observed; also recorded: acute toxicity was seen
Cc1ccc(Nc2nccc(-c3cnn4ncccc34)n2)cn1 [Compound 2d]	–	> 50	–	–	–	–	–	–	0.43 ± 0.13	EC50 [4]: 0.92 ± 0.3 µM; EC50 [5, 13]: 1.6 ± 0.1 µM; in vivo toxicity in PK study [6]: acute toxicity was seen
N#Cc1cccc(-c2n[nH]c3ncc(-c4cnn(C5CCOCC5)c4)cc23)c1 [Compound 4a]	> 50	> 50	–	2.8 ± 0.92	2.8 ± 0.92	11 ± 9	> 50	3.3 ± 0.62	–	–
Cc1c(-c2cnn(C3CCOCC3)c2)cnc2[nH]cc(-c3cccc(C#N)c3)c12 [Compound 4b]	> 50	> 50	–	11 ± 1.5	11 ± 1.5	11 ± 2.3	> 50	1 ± 0.12	–	activity/toxicity against MRC5 cells (in words) (MRC5 cells; up to 50 μM): not toxic
N#Cc1cccc(-c2c[nH]c3ncc(-c4cnn(C5CCNCC5)c4)cc23)c1 [Compound 4c]	–	–	–	–	–	> 20	–	–	–	brain exposure in PK ([6]; ref Klug et al., 2021): negligible brain exposure
Cn1cc(-c2cnc3[nH]cc(-c4cncc(C#N)c4)c3c2)cn1 [Compound 4e]	> 50	> 50	> 20	> 50	–	–	> 50	8.3 ± 1.3	–	–
CN(C)Cc1ccc(-c2cc3c(-c4cnn(C)c4)ccnc3[nH]2)cc1 [Compound 5c]	14 ± 2.4	–	–	< 0.62	–	–	< 0.62	–	5.6 ± 0.29	CC50 at 48 h [1]: 11 ± 0.9 µM; CC50 at 72 h [3]: < 0.62 µM; EC50 ([5]; Balamuthia mandrillaris, ATCC50209, 72 h, read-out: Balamuthia mandrillaris EC50 ± SD, logarithmic trophozoites, 72 h, n = 3 (converted)): 12 ± 0.09 µM
FC1(F)CCN(c2nc(Nc3ccsc3)nc3[nH]cnc23)CC1 [Compound 6e]	> 50	> 50	> 20	> 50	> 50	–	> 50	–	–	–
O=C1OCc2ccc(Nc3nccc(Nc4cccc5c4C(=O)NC5)n3)cc21 [Compound S20, 7-((2-((3-oxo-1,3-dihydroisobenzofuran-5-yl)amino)pyrimidin-4-yl)amino)isoindolin-1-one]	> 50	–	3.3 ± 1	> 50	–	> 20	> 50	> 20	–	–
Cn1cc(Nc2nc(NCC(F)(F)F)c3nc[nH]c3n2)cn1 [Compound S21]	50	–	–	28 ± 1.4	–	> 20	> 50	> 20	> 20	–
Cn1cc(Nc2nc(N3CCOCC3)c3nc[nH]c3n2)cn1 [Compound S22]	19 ± 0.42	–	–	11 ± 1.0	–	> 20	19 ± 0.52	> 20	> 20	–
Fc1ccc(Nc2nc(NCC(F)(F)F)c3nc[nH]c3n2)cc1 [Compound S23]	> 50	–	–	> 50	–	> 20	> 50	> 20	> 20	–
Cn1cc(Nc2nc(NCCCC(F)(F)F)c3nc[nH]c3n2)cn1 [Compound S24]	50 ± 0	–	–	> 50	–	> 20	> 50	> 20	> 20	–
c1cc(-c2c[nH]c3ncc(-c4cnn(C5CCOCC5)c4)cc23)ccn1 [Compound S31]	7.9 ± 2.3	–	–	5.7 ± 0.49	–	> 20	5.8 ± 0.43	> 20	> 20	–
